Laboratory results published in US4753953A, “Pyridonecarboxylic acid derivatives and antibacterial pharmaceutical compositions thereof” (priority 1985, dated 1988).
Converted amounts (≈) assume the structure as drawn. Where two headings read alike, the source gives them in different places.

Columns and labels:
[1] = test system: Staphylococcus aureus 209 P; test: MIC, in vitro antibacterial activity (standard strains); type: cell-based; conditions: Staphylococcus aureus, 209P; 10^6 cells/ml; Gram +; read-out: MIC
S. aureus Smith = test: as above; type: cell-based, Staphylococcus aureus; conditions: Staphylococcus aureus; 10^6 cells/ml; Gram +; read-out: MIC
S. epidermidis IID 866 = test: as above; type: cell-based; conditions: Staphylococcus epidermidis, IID866; 10^6 cells/ml; Gram +; read-out: MIC
[2] = test system: Streptococcus pyogenes (S-8); test: as above; type: cell-based; conditions: Streptococcus pyogenes; 10^6 cells/ml; Gram +; read-out: MIC
S. pyogenes IID 692 = test: as above; type: cell-based, Streptococcus pyogenes; conditions: Streptococcus pyogenes, IID692; 10^6 cells/ml; Gram +; read-out: MIC
E. faecalis IID 682 = test: as above; type: cell-based; conditions: Enterococcus faecalis, IID682; 10^6 cells/ml; Gram +; read-out: MIC
E. coli ATCC 10536 = test: as above; type: cell-based, Escherichia coli; conditions: Escherichia coli, ATCC10536; 10^6 cells/ml; Gram -; read-out: MIC
[3] = test system: Proteus vulgaris IFO 3167; test: as above; type: cell-based; conditions: Proteus vulgaris, IFO3167
P. mirabilis IID 994 = test: as above; type: cell-based; conditions: Proteus mirabilis, IID994; 10^6 cells/ml; Gram -; read-out: MIC
[4] = test system: Morganella morganii IID 602; test: as above; type: cell-based; conditions: Morganella morganii, IID602; 10^6 cells/ml; Gram -; read-out: MIC
[5] = test system: Klebsiella pneumoniae KY(GN)6445; test: as above; type: cell-based; conditions: Klebsiella pneumoniae
[6] = test system: Enterobacter cloacae IID 977; test: as above; type: cell-based; conditions: Enterobacter cloacae, IID977; 10^6 cells/ml; Gram -; read-out: MIC
[7] = test system: Citrobacter freundii IID 976; test: as above; type: cell-based; conditions: Citrobacter freundii, IID976
[8] = test system: Serratia marcescens IID 618; test: as above; type: cell-based; conditions: Serratia marcescens, IID618; 10^6 cells/ml; Gram -; read-out: MIC
Shigella sonnei IID 969 = test: as above; type: cell-based; conditions: Shigella sonnei, IID969; 10^6 cells/ml; Gram -; read-out: MIC
Protocol: Minimal inhibitory concentrations (MICs) were determined in accordance with the method recommended by Japan Society of Chemotherapy.

[9] = test system: Salmonella enteritidis IID 604; test: as above; type: cell-based; conditions: Salmonella enterica; 10^6 cells/ml; Gram -; read-out: MIC
[10] = test system: Pseudomonas aeruginosa V-1; test: as above; type: cell-based; conditions: Pseudomonas aeruginosa, V1; 10^6 cells/ml; Gram -; read-out: MIC
P. aeruginosa IID 1210 = test: as above; type: cell-based, Pseudomonas aeruginosa; conditions: Pseudomonas aeruginosa, IID1210; 10^6 cells/ml; Gram -; read-out: MIC
P. cepacia GIFU 518 = test: as above; type: cell-based; conditions: Burkholderia cepacia, GIFU518
[11] = test system: Yersinia enterocolitica IID 981; test: as above; type: cell-based; conditions: Yersinia enterocolitica, IID981; 10^6 cells/ml; Gram -; read-out: MIC
[12] = test system: Alcaligenes faecalis 0114002; test: as above; type: cell-based; conditions: Alcaligenes faecalis, 0114002; 10^6 cells/ml; Gram -; read-out: MIC
[13] = test system: Bacteroides fragilis GM 7000; test: as above; type: cell-based; conditions: Bacteroides fragilis, GM7000; 10^6 cells/ml; Gram -; read-out: MIC
B. fragilis 0558 = test: as above; type: cell-based, Bacteroides fragilis; conditions: Bacteroides fragilis, 0558; 10^6 cells/ml; Gram -; read-out: MIC
B. fragilis 25285 = test: as above; type: cell-based, Bacteroides fragilis; conditions: Bacteroides fragilis, 25285; 10^6 cells/ml; Gram -; read-out: MIC
B. distasonis 8503 = test: as above; type: cell-based; conditions: Parabacteroides distasonis, 8503; 10^6 cells/ml; Gram -; read-out: MIC
[14] = test system: B. thetaiotaomicron (0661); test: as above; type: cell-based; conditions: Bacteroides thetaiotaomicron; 10^6 cells/ml; Gram -; read-out: MIC
[15] = test system: Fusobacterium mortiferum 4249; test: as above; type: cell-based; conditions: Fusobacterium mortiferum, 4249; 10^6 cells/ml; Gram -; read-out: MIC
F. varium KYA 8501 = test: as above; type: cell-based; conditions: Fusobacterium varium, KYA8501; 10^6 cells/ml; Gram -; read-out: MIC
[16] = test system: Eubacterium lentum GAI 5242; test: as above; type: cell-based; conditions: Eggerthella lenta, GAI5242; 10^6 cells/ml; Gram +; read-out: MIC
C. perfringens KYA 13123 = test: microbe, parasite or virus in culture; type: cell-based; conditions: Clostridium perfringens, KYA13123
C. ramosum = test: MIC, in vitro antibacterial activity (standard strains); type: cell-based; conditions: Thomasclavelia ramosa; 10^6 cells/ml; Gram +; read-out: MIC
[17] = test system: Peptostreptococcus anaerobius KYA 27337; test: as above; type: cell-based; conditions: Peptostreptococcus anaerobius, KYA27337; 10^6 cells/ml; Gram +; read-out: MIC
[18] = 10^6 cells/ml, Gram -, read-out: MIC

SMILES | MIC [1] [µg/mL] | MIC (S. aureus Smith) [µg/mL] | MIC (S. epidermidis IID 866) [µg/mL] | MIC [2] [µg/mL] | MIC (S. pyogenes IID 692) [µg/mL] | MIC (E. faecalis IID 682) [µg/mL] | MIC (E. coli ATCC 10536) [µg/mL] | MIC (P. mirabilis IID 994) [µg/mL] | MIC [4] [µg/mL] | MIC [6] [µg/mL] | MIC [8] [µg/mL] | MIC (Shigella sonnei IID 969) [µg/mL] | MIC [9] [µg/mL] | MIC [10] [µg/mL] | MIC (P. aeruginosa IID 1210) [µg/mL] | MIC (P. cepacia GIFU 518) [µg/mL] | MIC [11] [µg/mL] | MIC [12] [µg/mL] | MIC [13] [µg/mL] | MIC (B. fragilis 0558) [µg/mL] | other results
C[C@H]1CN(c2c(F)cc3c(=O)c(C(=O)O)cn(C4CC4)c3c2Cl)C[C@H]1N (relative stereo) [Example 16, 7-(cis-3-Amino-4-methyl-1-pyrrolidinyl)-8-chloro-1-cyclopropyl-6-fluoro-1,4-dihydro-4-oxo-3-quinolinecarboxylic acid] | 0.05 (≈ 0.132 µM) | 0.025 (≈ 0.0658 µM) | 0.05 (≈ 0.132 µM) | 0.1 (≈ 0.263 µM) | 0.1 (≈ 0.263 µM) | 0.1 (≈ 0.263 µM) | 0.0125 (≈ 0.0329 µM) | 0.025 (≈ 0.0658 µM) | 0.05 (≈ 0.132 µM) | 0.05 (≈ 0.132 µM) | 0.05 (≈ 0.132 µM) | 0.0063 (≈ 0.0166 µM) | 0.025 (≈ 0.0658 µM) | 0.1 (≈ 0.263 µM) | 0.39 (≈ 1.03 µM) | 0.39 (≈ 1.03 µM) | 0.05 (≈ 0.132 µM) | 0.1 (≈ 0.263 µM) | 0.05 (≈ 0.132 µM) | 0.05 (≈ 0.132 µM) | MIC [3, 18]: 0.0125 µg/mL (≈ 0.0329 µM); MIC [5, 18]: 0.025 µg/mL (≈ 0.0658 µM); MIC [7, 18]: 0.025 µg/mL (≈ 0.0658 µM); MIC (B. fragilis 25285): 0.05 µg/mL (≈ 0.132 µM); MIC (B. distasonis 8503): 0.2 µg/mL (≈ 0.527 µM); MIC [14]: 0.1 µg/mL (≈ 0.263 µM); MIC [15]: 0.1 µg/mL (≈ 0.263 µM); MIC (F. varium KYA 8501): 0.78 µg/mL (≈ 2.05 µM); MIC [16]: 0.05 µg/mL (≈ 0.132 µM); MIC (C. perfringens KYA 13123): 0.05 µg/mL (≈ 0.132 µM); MIC (C. ramosum): 0.39 µg/mL (≈ 1.03 µM); MIC [17]: 0.1 µg/mL (≈ 0.263 µM)
C[C@@H]1CN(c2c(F)cc3c(=O)c(C(=O)O)cn(C4CC4)c3c2F)C[C@H]1N (relative stereo) [Example 18, 7-(trans-3-Amino-4-methyl-1-pyrrolidinyl)-1-cyclopropyl-6,8-difluoro-1,4-dihydro-4-oxo-3-quinolinecarboxylic acid] | 0.05 (≈ 0.138 µM) | 0.05 (≈ 0.138 µM) | 0.05 (≈ 0.138 µM) | 0.05 (≈ 0.138 µM) | 0.1 (≈ 0.275 µM) | 0.1 (≈ 0.275 µM) | 0.05 (≈ 0.138 µM) | 0.025 (≈ 0.0688 µM) | 0.05 (≈ 0.138 µM) | 0.05 (≈ 0.138 µM) | 0.05 (≈ 0.138 µM) | 0.0125 (≈ 0.0344 µM) | 0.025 (≈ 0.0688 µM) | 0.1 (≈ 0.275 µM) | 0.78 (≈ 2.15 µM) | 0.1 (≈ 0.275 µM) | 0.05 (≈ 0.138 µM) | 0.1 (≈ 0.275 µM) | 0.2 (≈ 0.55 µM) | 0.2 (≈ 0.55 µM) | MIC [3]: 0.0125 µg/mL (≈ 0.0344 µM); MIC [5]: 0.0125 µg/mL (≈ 0.0344 µM); MIC [7]: 0.0125 µg/mL (≈ 0.0344 µM); MIC (B. fragilis 25285): 0.2 µg/mL (≈ 0.55 µM); MIC (B. distasonis 8503): 0.39 µg/mL (≈ 1.07 µM); MIC [14]: 0.39 µg/mL (≈ 1.07 µM); MIC [15]: 0.2 µg/mL (≈ 0.55 µM); MIC (F. varium KYA 8501): 1.56 µg/mL (≈ 4.29 µM); MIC [16]: 0.1 µg/mL (≈ 0.275 µM); MIC (C. perfringens KYA 13123): 0.1 µg/mL (≈ 0.275 µM); MIC (C. ramosum): 0.78 µg/mL (≈ 2.15 µM); MIC [17]: 0.2 µg/mL (≈ 0.55 µM)
